Results from US9085576B2 (AMGEN INC., priority 2013, dated 2015).

Columns and labels:
[1] = biological target: Beta Secretase enzyme (BACE) (Homo sapiens (Human), UniProt P56817); experiment: In vitro enzymatic BACE FRET assay; type: biochemical; conditions: read-out: BACE1 Enzyme assay IC50
[2] = biological target: Cathepsin D (Cat D) (Homo sapiens (Human), UniProt P07339); experiment: In vitro enzymatic Cathepsin D (Cat D) FRET assay; type: biochemical; conditions: read-out: CatD IC50
[3] = biological target: BACE (Homo sapiens (Human), UniProt P56817); experiment: In vitro BACE cell-based assay (Aβ40 in conditioned medium, sandwich ELISA)
Sequence of BACE (P56817 46-501, species assumed): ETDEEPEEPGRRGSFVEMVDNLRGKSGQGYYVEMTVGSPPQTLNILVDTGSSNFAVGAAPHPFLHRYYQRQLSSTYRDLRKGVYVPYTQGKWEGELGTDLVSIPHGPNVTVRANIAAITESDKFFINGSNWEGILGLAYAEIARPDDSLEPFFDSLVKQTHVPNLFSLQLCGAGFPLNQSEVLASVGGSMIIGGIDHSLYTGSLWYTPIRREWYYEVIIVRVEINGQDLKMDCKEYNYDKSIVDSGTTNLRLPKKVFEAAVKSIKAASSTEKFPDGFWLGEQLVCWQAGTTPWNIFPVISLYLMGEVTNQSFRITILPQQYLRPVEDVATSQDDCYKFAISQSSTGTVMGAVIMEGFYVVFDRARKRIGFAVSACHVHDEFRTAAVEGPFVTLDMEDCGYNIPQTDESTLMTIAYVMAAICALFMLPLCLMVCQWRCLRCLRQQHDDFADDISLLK

Sequence of Beta Secretase enzyme (BACE) (P56817 46-501): as the sequence (P56817 46-501, species assumed) above
Sequence of Cathepsin D (Cat D) (P07339 65-412, species assumed): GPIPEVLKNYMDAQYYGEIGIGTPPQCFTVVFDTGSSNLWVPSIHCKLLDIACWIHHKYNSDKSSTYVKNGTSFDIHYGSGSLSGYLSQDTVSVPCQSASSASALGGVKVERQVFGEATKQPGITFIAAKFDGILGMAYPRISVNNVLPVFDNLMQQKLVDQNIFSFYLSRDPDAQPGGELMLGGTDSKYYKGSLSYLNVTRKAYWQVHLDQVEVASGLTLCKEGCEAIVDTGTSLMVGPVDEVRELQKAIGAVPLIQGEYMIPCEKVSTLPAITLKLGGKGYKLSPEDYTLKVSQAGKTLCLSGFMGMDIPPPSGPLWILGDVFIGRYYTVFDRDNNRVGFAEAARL

Row | SMILES | IC50 [1] [µM] | IC50 [2] [µM] | IC50 [3] [µM]
1 | Cc1cc(C#N)cnc1C(=O)Nc1cc(F)c(Cl)c([C@@]2(CF)N=C(N)O[C@@H]3C[C@@H]32)c1 [Example 138, N-(3-((1R,5S,6R)-3-amino-5-(fluoromethyl)-2-oxa-4-azabicyclo[4.1.0]hept-3-en-5-yl)-4-chloro-5-fluorophenyl)-5-cyano-3-methylpicolinamide] | 0.0362 | 662 | 0.0151
2 | COc1cnc(C(=O)Nc2cc(F)c(F)c([C@@]3(CF)N=C(N)O[C@@H]4C[C@@H]43)c2)cn1 [Example 143, N-(3-((1R,5S,6R)-3-amino-5-(fluoromethyl)-2-oxa-4-azabicyclo[4.1.0]hept-3-en-5-yl)-4,5-difluorophenyl)-5-methoxypyrazine-2-carboxamide] | 0.125 | 529 | 0.0221
3 | COc1cnc(C(=O)Nc2cc(F)c(F)c([C@]3(CF)N=C(N)O[C@H]4C[C@H]43)c2)cn1 [Example 144, N-(3-((1S,5R,6S)-3-amino-5-(fluoromethyl)-2-oxa-4-azabicyclo[4.1.0]hept-3-en-5-yl)-4,5-difluorophenyl)-5-methoxypyrazine-2-carboxamide] | > 40 | 1340 | 4.62
4 | NC1=N[C@@](c2cc(NC(=O)c3coc(C(F)F)n3)ccc2F)(C(F)F)[C@H]2C[C@H]2O1 [Example 150, N-(3-((1R,5S,6R)-3-amino-5-(difluoromethyl)-2-oxa-4-azabicyclo[4.1.0]hept-3-en-5-yl)-4-fluorophenyl)-2-(difluoromethyl)oxazole-4-carboxamide 2,2,2-trifluoroacetate] | 0.0322 | 238 | 0.0182

Results, then the compound that gave them:

Row | IC50 [1] [µM] | IC50 [2] [µM] | IC50 [3] [µM] | SMILES
5 | 0.732 | 706 | 1 | CC(C)Oc1cnc(C(=O)Nc2ccc(F)c([C@@]3(C(F)F)N=C(N)O[C@@H]4C[C@@H]43)c2)cn1 [Example 147, N-(3-((1R,5S,6R)-3-amino-5-(difluoromethyl)-2-oxa-4-azabicyclo[4.1.0]hept-3-en-5-yl)-4-fluorophenyl)-5-isopropoxypyrazine-2-carboxamide]
6 | 0.195 | 1700 | 0.152 | NC1=N[C@@](c2cc(NC(=O)c3csc(C(F)F)n3)ccc2F)(C(F)F)[C@H]2C[C@H]2O1 [Example 149, N-(3-((1R,5S,6R)-3-amino-5-(difluoromethyl)-2-oxa-4-azabicyclo[4.1.0]hept-3-en-5-yl)-4-fluorophenyl)-2-(difluoromethyl)thiazole-4-carboxamide]
7 | 24.8 | 302 | 1.07 | NC1=N[C@@](c2cc(NC(=O)c3coc(C#CC4CC4)n3)ccc2F)(C(F)F)[C@H]2C[C@H]2O1 [Example 151, N-(3-((1R,5S,6R)-3-amino-5-(difluoromethyl)-2-oxa-4-azabicyclo[4.1.0]hept-3-en-5-yl)-4-fluorophenyl)-2-(cyclopropylethynyl) oxazole-4-carboxamide]
8 | 0.24 | 515 | 0.109 | Cn1nc(C(F)F)cc1C(=O)Nc1ccc(F)c([C@@]2(C(F)F)N=C(N)O[C@@H]3C[C@@H]32)c1 [Example 154, N-(3-((1R,5S,6R)-3-amino-5-(difluoromethyl)-2-oxa-4-azabicyclo[4.1.0]hept-3-en-5-yl)-4-fluorophenyl)-3-(difluoromethyl)-1-methyl-1H-pyrazole-5-carboxamide]
9 | > 40 | 647 | > 15.6 | COc1cnc(C(=O)Nc2cc(F)c(Cl)c([C@]3(CF)N=C(N)O[C@H]4C[C@H]43)c2)cn1 [Example 155]
10 | 0.055 | 897 | 0.0199 | COc1cnc(C(=O)Nc2cc(F)c(Cl)c([C@@]3(CF)N=C(N)O[C@@H]4C[C@@H]43)c2)cn1 [Example 156, N-(3-((1R,5S,6R)-3-amino-5-(fluoromethyl)-2-oxa-4-azabicyclo[4.1.0]hept-3-en-5-yl)-4-chloro-5-fluorophenyl)-5-methoxypyrazine-2-carboxamide]
